The values below come from US6436448B1, “Method for the treatment of lymphedema using guaifenesin” (Sky BioHealth Solutions, Inc., priority 2001, dated 2002).

For assay [1] the following is noted: herbal medicines, background statement; cited from earlier work.
Assay [2] is described as follows: Inventor's clinical observation of patients with lymphedema / fluid accumulation treated orally. The format is in vivo. The source says:
The inventor disagrees with the basic assumption and hypothesis on the inner working of guaifenesin. The inventor believes that guaifenesin's activity is its ability to break down undigested protein, and antigen-antibody complexed protein within the tissues and lymphatic nodes and vessels to reduce fluid accumulation and therefore reduce lymphedema. Guaifenesin is an expectorate and it thins out proteinaceous secretions from our lungs by directly and/or indirectly through stimulating macrophages to breaking the proteins into its amino acids components. The inventor believes that guaifenesin break down the proteins within the blood stream, tissues, and the lymphatic system. By maintaining a high level of guaifenesin within the blood stream, the “foreign” proteins within the tissue, antigen-antibody protein complexes within the lymph nodes will be broken down allowing the broken down amino acid particles to diffuse across the tissue into the lymphatic drainage. With this fluid switch from the lymphatic to the systemic circulation diuresis ensues without affecting the potassium metabolism within the kidney. The inventor has also observed lymphedema that occurs in non-fibromyalgia patients that responds well to guaifenesin therapy resulting in reduction of the swelling. […] These observations confirm the hypothesis that guaifenesin works on the “foreign” protein or antigen-antibodies protein complexes within the tissues and lymphatic system. With different size “foreign” protein and antigen-antibody protein complexes, guaifenesin's action on these proteins in various part of the body will proceed with different rate resulting in different rate of swelling reduction in different part of the bodies. Many of these patients, however, are diagnosed by a physician to have a cardiogenic etiology of edema and are typically treated with diuretics of various types. Cardiogenic edema should respond to a diuretic within […]. The inventor has observed patients being on diuretics for as long as a year with no results on the lymphedema. In testing this hypothesis, the inventor has used guaifenesin on over several hundred patients in varying dosages. […] Guaifenesin is also available in sustained-release version. The long-acting version is typically available at 600 mg and is designed to be taken two or three times a day. […] Other combinations of various dosage for ms may be used with various patients to improve results. […] While the inventor has only administered guaifenesin to patients orally, guaifenesin and its analogs can be formulated using known methods to prepare pharmaceutically useful compositions by combining guaifenesin with a pharmaceutically acceptable carriers and adapted to be administered by injection, transdermally, transmucosally or by any other means of drug delivery vehicle. Guafenesin may also be administered to a patient in a patch form or in a cream, ointment, or in a nasal or lung spray, or in a suppository.

The structures appear in SMILES notation.

For `O=c1ccc2ccccc2o1` [coumarin], the swelling of lymphedema entry in assay [1] is recorded as “decrease some of the swelling associated with lymphedema”.

Regarding `COc1ccccc1OCC(O)CO` (stereo not drawn) [guaifenesin], in assay [2] (combination of short acting and long acting versions), the “results with combination of short acting and long acting versions” value was “improves the results”. The “painful and swollen lymph nodes” value in assay [2] (fibromyalgia patients on guaifenesin) is “reduction of the painful and swollen lymph nodes”. Moreover, in assay [2] (long-acting version, typically 600 mg two or three times a day), the “results with long-acting (sustained-release) version alone” value is listed as “may not work well in some patients”. The “response of lymphedema (reduction of the swelling)” value in assay [2] (non-fibromyalgia patients, guaifenesin therapy) is “responds well”. Further, in assay [2] (over several hundred patients, oral, about 600 mg to about 4000 mg per day), the accumulated fluid result is given as “reduction of accumulated fluid”.
